Tested on: MV-4-11 cells
Test: Gene expression microarray analysis (Affymetrix PrimeView) and GSEA
Type: cell-based, human
Design: RFU PODN (11730768_x_at) / Fold change /veh PODN (11730768_x_at) / RFU LINC00158 (11744669_a_at) / Fold change /veh LINC00158 (11744669_a_at) / RFU DUSP10 (11751237_a_at) / Fold change /veh DUSP10 (11751237_a_at) / RFU ID3 (11757404_x_at) / Fold change /veh ID3 (11757404_x_at) / RFU PLEKHG5 (11737974_s_at) / Fold change /veh PLEKHG5 (11737974_s_at) / RFU LRRC4B (11730491_at) / Fold change /veh LRRC4B (11730491_at) / RFU GIMAP4 (11747438_a_at) / Fold change /veh GIMAP4 (11747438_a_at) / RFU KRT8 (11758183_x_at) / Fold change /veh KRT8 (11758183_x_at) / RFU CNN1 (11734310_a_at) / Fold change /veh CNN1 (11734310_a_at) / RFU VPS37D (11726825_at) / Fold change /veh VPS37D (11726825_at) / RFU C10orf10 (11716522_x_at) / Fold change /veh C10orf10 (11716522_x_at) / RFU KIR2DL2 /// KIR2DL4 /// KIR2DL5A /// KIR2DL5B /// KIR2DS1 /// KIR2DS2 /// KIR2DS3 /// KIR2DS4 /// KIR3DL3 /// KIR3DL3 /// KIR3DS1 (11738374_at) / Fold change /veh KIR2DL2 /// KIR2DL4 /// KIR2DL5A /// KIR2DL5B /// KIR2DS1 /// KIR2DS2 /// KIR2DS3 /// KIR2DS4 /// KIR3DL3 /// KIR3DL3 /// KIR3DS1 (11738374_at) / RFU C1QL1 (11718748_at) / Fold change /veh C1QL1 (11718748_at) / RFU TMPRSS4 (11747572_a_at) / Fold change /veh TMPRSS4 (11747572_a_at) / RFU HAMP (11756126_x_at) / Fold change /veh HAMP (11756126_x_at) / RFU RNFT2 (11725882_a_at) / Fold change /veh RNFT2 (11725882_a_at) / RFU NR4A2 (11747474_a_at) / Fold change /veh NR4A2 (11747474_a_at) / RFU ABCC12 (11746883_a_at) / Fold change /veh ABCC12 (11746883_a_at) / RFU TMEM136 (11760407_x_at) / Fold change /veh TMEM136 (11760407_x_at) / RFU CLDN22 /// WWC2 (11732394_at) / Fold change /veh CLDN22 /// WWC2 (11732394_at) / RFU HLA-DPB1 (11760878_x_at) / Fold change /veh HLA-DPB1 (11760878_x_at) / RFU SPINT1 (11716480_a_at) / Fold change /veh SPINT1 (11716480_a_at) / RFU GAP43 (11754022_s_at) / Fold change /veh GAP43 (11754022_s_at) / RFU A4GNT (11735810_at) / Fold change /veh A4GNT (11735810_at) / RFU PRB3 (11715151_x_at) / Fold change /veh PRB3 (11715151_x_at) / RFU TUBB4B (11761932_at) / Fold change /veh TUBB4B (11761932_at) / RFU CAPN14 (11732068_a_at) / Fold change /veh CAPN14 (11732068_a_at) / RFU TMCC2 (11721928_a_at) / Fold change /veh TMCC2 (11721928_a_at) / RFU IRGQ (11745062_a_at) / Fold change /veh IRGQ (11745062_a_at) / RFU FAM174B (11720279_a_at) / Fold change /veh FAM174B (11720279_a_at) / RFU TMPRSS4 (11748680_a_at) / Fold change /veh TMPRSS4 (11748680_a_at) / RFU FAM212B (11763350_a_at) / Fold change /veh FAM212B (11763350_a_at) / RFU PLEKHG5 (11743358_a_at) / Fold change /veh PLEKHG5 (11743358_a_at) / RFU ZSCAN30 (11745921_a_at) / Fold change /veh ZSCAN30 (11745921_a_at) / RFU CMKLR1 (11741424_a_at) / Fold change /veh CMKLR1 (11741424_a_at) / RFU LOC101060620 /// MAPK8IP1 (11723275_at) / Fold change /veh LOC101060620 /// MAPK8IP1 (11723275_at) / RFU SPTSSB (11747773_x_at) / Fold change /veh SPTSSB (11747773_x_at) / RFU PRSS12 (11739890_at) / Fold change /veh PRSS12 (11739890_at) / RFU BIN1 (11741810_x_at) / Fold change /veh BIN1 (11741810_x_at) / RFU WNT11 (11732464_a_at) / Fold change /veh WNT11 (11732464_a_at) / RFU C10orf10 (11716521_a_at) / Fold change /veh C10orf10 (11716521_a_at) / RFU C5orf56 (11738089_at) / Fold change /veh C5orf56 (11738089_at) / RFU CYB561 (11721691_x_at) / Fold change /veh CYB561 (11721691_x_at) / RFU ANKRD19P (11752326_a_at) / Fold change /veh ANKRD19P (11752326_a_at) / RFU OR2T12 /// OR2T33 /// OR2T8 (11738714_s_at) / Fold change /veh OR2T12 /// OR2T33 /// OR2T8 (11738714_s_at) / RFU VCAN (11748164_a_at) / Fold change /veh VCAN (11748164_a_at) / RFU JSRP1 (11732532_at) / Fold change /veh JSRP1 (11732532_at) / RFU KRTAP10-11 (11738290_x_at) / Fold change /veh KRTAP10-11 (11738290_x_at) / RFU MYO3A (11730013_a_at) / Fold change /veh MYO3A (11730013_a_at) / RFU EBF3 (11725865_a_at) / Fold change /veh EBF3 (11725865_a_at) / RFU CAMK2N1 (11719241_x_at) / Fold change /veh CAMK2N1 (11719241_x_at) / RFU C5orf56 (11738088_a_at) / Fold change /veh C5orf56 (11738088_a_at) / RFU OLFML3 (11715873_a_at) / Fold change /veh OLFML3 (11715873_a_at) / RFU LOC100653217 /// NTM (11731650_a_at) / Fold change /veh LOC100653217 /// NTM (11731650_a_at) / RFU MAPK11 (11762145_a_at) / Fold change /veh MAPK11 (11762145_a_at) / RFU FIZ1 (11724087_x_at) / Fold change /veh FIZ1 (11724087_x_at) / RFU OASL (11726364_x_at) / Fold change /veh OASL (11726364_x_at) / RFU SOX15 (11748057_x_at) / Fold change /veh SOX15 (11748057_x_at) / RFU CD79A (11719716_a_at) / Fold change /veh CD79A (11719716_a_at) / RFU HIST1H1D (11736915_at) / Fold change /veh HIST1H1D (11736915_at) / RFU CASKIN2 (11723855_a_at) / Fold change /veh CASKIN2 (11723855_a_at) / RFU LOC730098 (11760151_x_at) / Fold change /veh LOC730098 (11760151_x_at) / RFU OR4N2 (11742367_at) / Fold change /veh OR4N2 (11742367_at) / RFU PRRT2 (11749266_a_at) / Fold change /veh PRRT2 (11749266_a_at) / RFU SNX32 (11753110_a_at) / Fold change /veh SNX32 (11753110_a_at) / RFU CDHR5 (11726645_a_at) / Fold change /veh CDHR5 (11726645_a_at) / RFU RCAN1 (11760418_a_at) / Fold change /veh RCAN1 (11760418_a_at) / RFU FAM167A (11723789_a_at) / Fold change /veh FAM167A (11723789_a_at) / RFU FAM26E (11764081_at) / Fold change /veh FAM26E (11764081_at) / RFU ISYNA1 (11749810_s_at) / Fold change /veh ISYNA1 (11749810_s_at) / RFU ACY1 (11761880_at) / Fold change /veh ACY1 (11761880_at) / RFU 11764098_at / Fold change /veh 11764098_at / RFU SAMD14 (11745864_x_at) / Fold change /veh SAMD14 (11745864_x_at) / RFU NPB (11741838_a_at) / Fold change /veh NPB (11741838_a_at) / RFU TMPRSS6 (11731388_a_at) / Fold change /veh TMPRSS6 (11731388_a_at) / RFU KRTAP10-2 (11738614_at) / Fold change /veh KRTAP10-2 (11738614_at) / RFU ARHGAP8 /// PRR5-ARHGAP8 (11727945_x_at) / Fold change /veh ARHGAP8 /// PRR5-ARHGAP8 (11727945_x_at) / RFU KRTAP5-7 /// NADSYN1 (11734609_at) / Fold change /veh KRTAP5-7 /// NADSYN1 (11734609_at) / RFU RASL12 (11751679_a_at) / Fold change /veh RASL12 (11751679_a_at) / RFU CDKN2B (11736163_a_at) / Fold change /veh CDKN2B (11736163_a_at) / RFU PRF1 (11729649_at) / Fold change /veh PRF1 (11729649_at) / RFU, ZNF638 /// ZNF638-IT1 / Fold change vs veh, ZNF638 /// ZNF638-IT1 / RFU, PANK3 / Fold change vs veh, PANK3 / RFU, SH3YL1 / Fold change vs veh, SH3YL1 / RFU, ZEB2 / Fold change vs veh, ZEB2 / RFU, NRIP1 / Fold change vs veh, NRIP1 / RFU, PTTG1IP / Fold change vs veh, PTTG1IP / RFU, CAPN2 / Fold change vs veh, CAPN2 / RFU, MED14 / Fold change vs veh, MED14 / RFU, SNORA58 / Fold change vs veh, SNORA58 / RFU, C1orf63 / Fold change vs veh, C1orf63 / RFU, LRRFIP1 / Fold change vs veh, LRRFIP1 / RFU, NDUFAF7 / Fold change vs veh, NDUFAF7 / RFU, SLC12A2 / Fold change vs veh, SLC12A2 / RFU, IBTK / Fold change vs veh, IBTK / RFU, ESF1 / Fold change vs veh, ESF1 / Fold change vs veh, TMEM50B / RFU, TAOK1 / Fold change vs veh, TAOK1 / RFU, ACBD3 / Fold change vs veh, ACBD3 / RFU, TMA16 / Fold change vs veh, TMA16 / RFU, RWDD3 / Fold change vs veh, RWDD3 / RFU, BCAT1 / Fold change vs veh, BCAT1 / RFU, EDEM3 / Fold change vs veh, EDEM3 / RFU, TMEM33 / Fold change vs veh, TMEM33 / RFU, WDR75 / Fold change vs veh, WDR75 / RFU, AHCTF1 / Fold change vs veh, AHCTF1 / RFU, TFRC / Fold change vs veh, TFRC / RFU, ZDHHC17 / Fold change vs veh, ZDHHC17 / RFU, NOM1 / Fold change vs veh, NOM1 / RFU, ARL8B / Fold change vs veh, ARL8B / RFU, ZBTB11 / Fold change vs veh, ZBTB11 / RFU, TAMM41 / Fold change vs veh, TAMM41 / RFU, KIAA1704 /// LOC100996395 / Fold change vs veh, KIAA1704 /// LOC100996395 / RFU, ING1 / Fold change vs veh, ING1 / RFU, TRMT61B / Fold change vs veh, TRMT61B / RFU, FUBP3 / Fold change vs veh, FUBP3 / RFU, TP53 / Fold change vs veh, TP53 / RFU, TNKS2 / Fold change vs veh, TNKS2 / RFU, ZFP14 / Fold change vs veh, ZFP14 / RFU, ACTR2 / Fold change vs veh, ACTR2 / RFU, PPP3R1 / Fold change vs veh, PPP3R1 / RFU, PIK3R1 / Fold change vs veh, PIK3R1 / RFU, HNRNPA1 / Fold change vs veh, HNRNPA1 / RFU, RNF170 / Fold change vs veh, RNF170 / RFU, ZNF28 / Fold change vs veh, ZNF28 / RFU, RNGTT / Fold change vs veh, RNGTT / RFU, OGT / Fold change vs veh, OGT / RFU, BRD1 / Fold change vs veh, BRD1 / RFU, MARS / Fold change vs veh, MARS / RFU, ZNF655 / Fold change vs veh, ZNF655 / RFU, FAHD1 / Fold change vs veh, FAHD1 / RFU, BDP1 / Fold change vs veh, BDP1 / RFU, LRRCC1 / Fold change vs veh, LRRCC1 / RFU, ARID1A / Fold change vs veh, ARID1A / RFU, ZNF146 / Fold change vs veh, ZNF146 / RFU, ZNF330 / Fold change vs veh, ZNF330 / RFU, GPN3 / Fold change vs veh, GPN3 / RFU, C9orf123 / Fold change vs veh, C9orf123 / RFU, N4BP2L2 / Fold change vs veh, N4BP2L2 / RFU, ARFIP1 / Fold change vs veh, ARFIP1 / RFU, FAM179B / Fold change vs veh, FAM179B / RFU, BCL10 / Fold change vs veh, BCL10 / RFU, UHRF1BP1L / Fold change vs veh, UHRF1BP1L / RFU, BET1 / Fold change vs veh, BET1 / RFU, CNOT2 / Fold change vs veh, CNOT2 / RFU, ZNF268 / Fold change vs veh, ZNF268 / Fold change vs veh, ZNF507 / RFU, DGCR2 / Fold change vs veh, DGCR2 / RFU, WDSUB1 / Fold change vs veh, WDSUB1 / Fold change vs veh, HSP90B1 /// MIR3652 / RFU, ADSS / Fold change vs veh, ADSS / RFU, GK / Fold change vs veh, GK / RFU, ZNF148 / Fold change vs veh, ZNF148 / RFU, TAF9 / Fold change vs veh, TAF9 / RFU, SLC1A5 / Fold change vs veh, SLC1A5 / RFU, SLMO2 / Fold change vs veh, SLMO2 / RFU, ABCC4 / Fold change vs veh, ABCC4 / RFU, LOC101060439 /// RAP1B / Fold change vs veh, LOC101060439 /// RAP1B / RFU, RFX7 / Fold change vs veh, RFX7 / RFU, GTPBP10 / Fold change vs veh, GTPBP10 / RFU, CNEP1R1 / Fold change vs veh, CNEP1R1 / RFU, BIVM-ERCC5 /// ERCC5 / Fold change vs veh, BIVM-ERCC5 /// ERCC5 / RFU, ILF3 / Fold change vs veh, ILF3 / RFU 11762660_at / Fold change /veh 11762660_at / RFU VCAN (11757783_s_at) / Fold change /veh VCAN (11757783_s_at) / RFU DDX43 (11728927_at) / Fold change /veh DDX43 (11728927_at) / RFU KRT8 (11758188_x_at) / Fold change /veh KRT8 (11758188_x_at) / RFU NKD1 (11759106_at) / Fold change /veh NKD1 (11759106_at) / RFU SRD5A1 (11742802_a_at) / Fold change /veh SRD5A1 (11742802_a_at) / RFU TPSAB1 /// TPSB2 (11721975_s_at) / Fold change /veh TPSAB1 /// TPSB2 (11721975_s_at) / RFU GSTM3 (11746129_a_at) / Fold change /veh GSTM3 (11746129_a_at) / RFU IL23R (11737362_x_at) / Fold change /veh IL23R (11737362_x_at) / RFU TMEM51 (11727254_a_at) / Fold change /veh TMEM51 (11727254_a_at) / RFU PIWIL2 (11732686_x_at) / Fold change /veh PIWIL2 (11732686_x_at) / RFU ORM1 (11744905_x_at) / Fold change /veh ORM1 (11744905_x_at) / RFU CCDC152 (11743942_at) / Fold change /veh CCDC152 (11743942_at) / RFU ECM1 (11717891_a_at) / Fold change /veh ECM1 (11717891_a_at) / RFU IL23R (11748794_a_at) / Fold change /veh IL23R (11748794_a_at) / RFU TNFAIP8L3 (11732012_x_at) / Fold change /veh TNFAIP8L3 (11732012_x_at) / RFU MBOAT4 (11741988_at) / Fold change /veh MBOAT4 (11741988_at) / RFU 11764193_at / Fold change /veh 11764193_at / RFU TMEM53 (11763286_at) / Fold change /veh TMEM53 (11763286_at) / RFU MAGEB2 (11727129_at) / Fold change /veh MAGEB2 (11727129_at) / RFU TMEM200A (11744735_a_at) / Fold change /veh TMEM200A (11744735_a_at) / RFU CCDC152 (11751479_a_at) / Fold change /veh CCDC152 (11751479_a_at) / RFU FAM211A (11726209_a_at) / Fold change /veh FAM211A (11726209_a_at) / RFU RGS16 (11746705_a_at) / Fold change /veh RGS16 (11746705_a_at) / RFU VCAN (11755009_s_at) / Fold change /veh VCAN (11755009_s_at) / RFU RHOB (11743442_s_at) / Fold change /veh RHOB (11743442_s_at) / RFU RGS16 (11720943_a_at) / Fold change /veh RGS16 (11720943_a_at) / RFU RGS16 (11720944_at) / Fold change /veh RGS16 (11720944_at) / RFU, VPS4B / Fold change vs veh, VPS4B / RFU, CREB1 / Fold change vs veh, CREB1 / RFU, DNAJC13 / Fold change vs veh, DNAJC13 / RFU, GNAQ / Fold change vs veh, GNAQ / RFU, CDK5R1 / Fold change vs veh, CDK5R1 / RFU, ZRANB3 / Fold change vs veh, ZRANB3 / RFU, CUL4A / Fold change vs veh, CUL4A / RFU, CCNY / Fold change vs veh, CCNY / RFU, UFL1 / Fold change vs veh, UFL1 / RFU, COG3 / Fold change vs veh, COG3 / RFU, DIAPH2 / Fold change vs veh, DIAPH2 / RFU, SKA2 / Fold change vs veh, SKA2 / RFU, AFF3 / Fold change vs veh, AFF3 / RFU, LMF1 / Fold change vs veh, LMF1 / RFU, IPO11 / Fold change vs veh, IPO11 / RFU, DFFB / Fold change vs veh, DFFB / RFU, FOXP1 / Fold change vs veh, FOXP1 / RFU, CARD8 / Fold change vs veh, CARD8 / RFU, STRN3 / Fold change vs veh, STRN3 / RFU, ADK / Fold change vs veh, ADK / RFU, RASSF2 / Fold change vs veh, RASSF2 / RFU, WIPF1 / Fold change vs veh, WIPF1 / RFU, LARP1B / Fold change vs veh, LARP1B / RFU, RASA1 / Fold change vs veh, RASA1 / RFU, RB1 / Fold change vs veh, RB1 / RFU, PPFIA1 / Fold change vs veh, PPFIA1 / RFU, MAT2A / Fold change vs veh, MAT2A / RFU, CCT5 / Fold change vs veh, CCT5 / RFU, WDR92 / Fold change vs veh, WDR92 / RFU, CUX1 / Fold change vs veh, CUX1 / RFU, TTC7A / Fold change vs veh, TTC7A / RFU, TMEM135 / Fold change vs veh, TMEM135 / RFU, DEPTOR / Fold change vs veh, DEPTOR / RFU, CPM / Fold change vs veh, CPM / RFU, DNAJB6 / Fold change vs veh, DNAJB6 / RFU, CACNA2D3 / Fold change vs veh, CACNA2D3 / RFU, DTX4 / Fold change vs veh, DTX4 / RFU, TFCP2 / Fold change vs veh, TFCP2 / RFU, GMCL1 /// GMCL1P1 / Fold change vs veh, GMCL1 /// GMCL1P1 / RFU, AEBP2 / Fold change vs veh, AEBP2 / RFU, SNHG1 /// SNORD22 /// SNORD25 /// SNORD26 /// SNORD27 /// SNORD28 /// SNORD29 /// SNORD31 / Fold change vs veh, SNHG1 /// SNORD22 /// SNORD25 /// SNORD26 /// SNORD27 /// SNORD28 /// SNORD29 /// SNORD31 / Fold change (Aza/veh), C12orf56 (ProbeSet 11735607_a_at) / Fold change (ACY-1035/veh), C12orf56 (ProbeSet 11735607_a_at) / Fold change (Aza/veh), FGFR1OP (ProbeSet 11751329_s_at) / Fold change (ACY-1035/veh), FGFR1OP (ProbeSet 11751329_s_at) / Fold change (Aza/veh), VPS36 (ProbeSet 11739960_a_at) / Fold change (ACY-1035/veh), VPS36 (ProbeSet 11739960_a_at) / RFU SYPL1 (11715823_x_at) / Fold change /veh SYPL1 (11715823_x_at) / RFU IGFBP7 (11715501_s_at) / Fold change /veh IGFBP7 (11715501_s_at) / RFU REEP3 (11722064_at) / Fold change /veh REEP3 (11722064_at) / RFU IGLL1 (11728026_x_at) / Fold change /veh IGLL1 (11728026_x_at): dose or concentration left out as unconfirmed
Settings: ProbeSet 11739696_s_at; LIST D

## Nc1ncn([C@@H]2O[C@H](CO)[C@@H](O)[C@H]2O)c(=O)n1 [azacitidine]
  Fold change vs veh, AFF3: 0.52

— article PMC5218480 (PLoS ONE, 2017)
